Activity calls are given as the source filed them. The rule behind the calls is not given here. Positions of bridges follow the written chain, without caps; N, C: chain ends. Residues, ends and D or L forms follow the SMILES beside them.
Assays:
Escherichia coli [1] = assay: Antibacterial activity against Escherichia coli ATCC 25922 at 1 times MIC in presence of exogenous DNA; type: functional, organism-based
Staphylococcus aureus [2] = assay: Antimicrobial activity against Staphylococcus aureus ATCC 43300 assessed as reduction in microbial growth incubated for 18 hrs by broth microdilution method; type: functional
Acinetobacter baumannii [3] = assay: Antimicrobial activity against Acinetobacter baumannii ATCC19606 assessed as reduction in microbial growth incubated for 18 hrs by broth microdilution method; type: functional
Escherichia coli [4] = assay: Drug resistance, ratio of MIC for Escherichia coli ATCC 25922 after 40 passages to MIC for Escherichia coli ATCC 25922 during first exposure; type: functional
Staphylococcus aureus [5] = assay: Antibiofilm activity against Staphylococcus aureus CMCC 26003 assessed as biofilm eradication incubated for 24 hrs by crystal violet staining based analysis; type: functional, organism-based
Acinetobacter baumannii [6] = assay: In vivo antibacterial activity against Acinetobacter baumannii ATCC19606 infected in BALB/c mouse assessed as reduction in bacterial load in lung at 15 mg/kg, ip measured after 12 hrs; type: functional, organism-based
Acinetobacter baumannii [7] = assay: In vivo antibacterial activity against Acinetobacter baumannii ATCC19606 infected in BALB/c mouse assessed as reduction in bacterial load in kidney at 15 mg/kg, ip measured after 3 hrs; type: functional, organism-based
Acinetobacter baumannii [8] = assay: In vivo antibacterial activity against Acinetobacter baumannii ATCC19606 infected in BALB/c mouse assessed as reduction in bacterial load in liver at 15 mg/kg, ip measured after 3 hrs; type: functional, organism-based
Acinetobacter baumannii [9] = assay: Antibiofilm activity against Acinetobacter baumannii ATCC 19606 assessed as biofilm eradication incubated for 24 hrs by crystal violet staining based analysis; type: functional, organism-based
[10] = Hemolytic activity at human Erythrocyte assessed as hemolysis at 100 microg/ml; type: toxicity, cell-based; conditions: erythrocytes, at 100 µg/mL, read-out: Activity
Enterococcus faecium = assay: Antimicrobial activity against Enterococcus faecium 34 assessed as reduction in microbial growth incubated for 18 hrs by broth microdilution method; type: functional
Cell membrane [11] = assay: Disruption of cell membrane integrity in Escherichia coli ATCC 25922 assessed as cell membrane damage at 5 times MIC measured after 30 mins by scanning electron microscopic analysis; type: subcellular
Staphylococcus aureus [12] = assay: Antibiofilm activity against Staphylococcus aureus CMCC 26003 assessed as reduction in biofilm formation at 0.5 times MIC incubated for 24 hrs by crystal violet staining based analysis; type: functional; parameters: scale not given: the % may be the effect or the level left
Escherichia coli [13] = assay: Antimicrobial activity against Escherichia coli CMCC44102 assessed as reduction in microbial growth incubated for 18 hrs by broth microdilution method; type: functional
Staphylococcus aureus [14] = assay: Antibacterial activity against Staphylococcus aureus CMCC 26003 assessed as increase in intracellular ROS production incubated for 1 hr by DCFH-DA staining based assay; type: functional, organism-based
Acinetobacter baumannii [15] = assay: In vivo antibacterial activity against Acinetobacter baumannii ATCC19606 infected in BALB/c mouse assessed as reduction in bacterial load in lung at 15 mg/kg, ip measured after 3 hrs; type: functional, organism-based
Peritoneal macrophage [16] = assay: Antiinflammatory activity in mouse Peritoneal macrophage cells assessed as inhibition of LPS-induced TNF-alpha production at 20 microg/ml incubated for 6 hrs by ELISA analysis; type: functional, cell-based; conditions: dose 20.0 µg/ml
Acinetobacter baumannii [17] = assay: In vivo antibacterial activity against Acinetobacter baumannii ATCC19606 infected in BALB/c mouse assessed as survival at 15 mg/kg, ip administered for 12 hrs and measured on day 7; type: functional
Acinetobacter baumannii [18] = assay: In vivo antibacterial activity against Acinetobacter baumannii ATCC19606 infected in BALB/c mouse assessed as reduction in bacterial load at 15 mg/kg, ip; type: functional, organism-based; conditions: time 3.0 hrs
Enterococcus faecalis = assay: Antimicrobial activity against Enterococcus faecalis ATCC 29217 assessed as reduction in microbial growth incubated for 18 hrs by broth microdilution method; type: functional
Cell membrane [19] = assay: Disruption of cell membrane integrity in Staphylococcus aureus CMCC 26003 assessed as cell membrane damage at 5 times MIC measured after 30 mins by scanning electron microscopic analysis; type: subcellular
Peritoneal macrophage [20] = assay: Antiinflammatory activity in mouse Peritoneal macrophage cells assessed as inhibition of LPS-induced IL-6 production at 20 microg/ml incubated for 6 hrs by ELISA analysis; type: functional, cell-based; conditions: dose 20.0 µg/ml
Staphylococcus aureus [21] = assay: Antimicrobial activity against Staphylococcus aureus CMCC 26003 assessed as reduction in microbial growth incubated for 18 hrs by broth microdilution method; type: functional
[22] = Acute toxicity in BALB/c mouse assessed as effect on ALT level at 10 mg/kg, iv measured for 24 hrs; type: organism-based; conditions: in vivo
Salmonella enteritidis = assay: Antimicrobial activity against Salmonella enterica subsp. enterica serovar Enteritidis ATCC 14028 assessed as reduction in microbial growth incubated for 18 hrs by broth microdilution method; type: functional
[23] = Acute toxicity in BALB/c mouse assessed as mortality at 10 mg/kg, iv measured for 24 hrs; type: organism-based; conditions: in vivo, read-out: Activity
Clostridium perfringens = assay: Antimicrobial activity against Clostridium perfringens ATCC 13124 assessed as reduction in microbial growth incubated for 18 hrs by broth microdilution method; type: functional
Pseudomonas aeruginosa = assay: Antimicrobial activity against Pseudomonas aeruginosa CMCC10104 assessed as reduction in microbial growth incubated for 18 hrs by broth microdilution method; type: functional
Staphylococcus aureus [24] = assay: Bactericidal activity against Staphylococcus aureus CMCC 26003 assessed as bacterial eradication incubated at 0.5 hrs in presence of thiourea; type: functional, organism-based
[25] = Acute toxicity in BALB/c mouse assessed as mortality at 15 mg/kg, iv measured for 24 hrs; type: organism-based; conditions: in vivo, read-out: Activity
[26] = tested on: Staphylococcus epidermidis; assay: Antimicrobial activity against Staphylococcus epidermidis assessed as reduction in microbial growth incubated for 18 hrs by broth microdilution method; type: functional
Staphylococcus aureus [27] = assay: Antimicrobial activity against Staphylococcus aureus CMCC 26003 assessed as fold increase in MIC incubated for 18 hrs in presence of CCCP; type: functional
Escherichia coli [28] = assay: Antibacterial activity against Escherichia coli ATCC 25922 assessed as increase in intracellular ROS production at 2 to 5 times MIC by DCFH-DA staining based assay; type: functional, organism-based
Acinetobacter baumannii [29] = assay: Drug resistance, ratio of MIC for Acinetobacter baumannii ATCC1960 after 40 passages to MIC for Acinetobacter baumannii ATCC1960 during first exposure; type: functional
Staphylococcus aureus [30] = assay: Antibiofilm activity against Staphylococcus aureus CMCC 26003 assessed as biofilm eradication at 0.5 to 2 times MIC incubated for 24 hrs by crystal violet staining based analysis; type: functional
Escherichia coli [31] = assay: Antibacterial activity against Escherichia coli ATCC 25922 assessed as increase in intracellular ROS production at 1 times MIC by DCFH-DA staining based assay; type: functional, organism-based
Acinetobacter baumannii [32] = assay: Antibiofilm activity against Acinetobacter baumannii ATCC 19606 assessed as inhibition of biofilm formation at 0.5 times MIC incubated for 48 hrs by crystal violet staining based analysis; type: functional
Staphylococcus aureus [33] = assay: Antipersister-activity against Staphylococcus aureus CMCC 26003 assessed as elimination of persister cells at 50 times MIC preincubated adherent persistent cells with colistin incubation for 24 hrs; type: functional
[34] = Acute toxicity in BALB/c mouse assessed as effect on BUN level at 10 mg/kg, iv measured for 24 hrs; type: organism-based; conditions: in vivo

Structure (SMILES) | Activity (Escherichia coli [1]) | MIC (Staphylococcus aureus [2]) [µg/mL] | MIC (Acinetobacter baumannii [3]) [µg/mL] | Ratio (Escherichia coli [4]) | Activity (Staphylococcus aureus [5]) | Activity (Acinetobacter baumannii [6]) | Activity (Acinetobacter baumannii [7]) | Activity (Acinetobacter baumannii [8]) | Activity (Acinetobacter baumannii [9]) | hemolysis at 100 microg/ml [10] [%] | MIC (Enterococcus faecium) [µg/mL] | Activity (Cell membrane [11]) | Activity (Staphylococcus aureus [12]) [%] | MIC (Escherichia coli [13]) [µg/mL] | Activity (Staphylococcus aureus [14]) | Activity (Acinetobacter baumannii [15]) | Activity (Peritoneal macrophage [16]) | Activity (Acinetobacter baumannii [18]) | MIC (Enterococcus faecalis) [µg/mL] | Activity (Cell membrane [19]) | other results
CC[C@H](C)[C@H](NC(=O)[C@@H](CCCNC(=N)N)NC(=O)[C@H](CO)NC(=O)[C@H](Cc1c[nH]cn1)NC(=O)[C@@H](CCCNC(=N)N)NC(=O)[C@H](CC(C)C)NC(=O)[C@@H](NC(=O)[C@@H](CCCNC(=N)N)NC(=O)CNC(=O)[C@H](CC(C)C)NC(=O)[C@H](CCC(N)=O)NC(=O)[C@@H](CCCCN)NC(=O)[C@@H](CCCNC(=N)N)NC(=O)[C@@H](NC(=O)[C@@H](CCCCN)NC(=O)[C@@H](CCCCN)NC(=O)[C@@H](N)Cc1ccccc1)C(C)C)C(C)C)C(=O)N[C@H](C(=O)N[C@H](C(=O)NCC(=O)NCC(=O)N[C@H](CCCNC(=N)N)C(=O)N[C@@H](CCSC)C(=O)N[C@H](CCCNC(=N)N)C(=O)N[C@@H](Cc1ccccc1)C(=O)O)C(C)C)[C@@H](C)O | Active | > 100 | 18.8 | 1 | Active | Active | Active | Active | Active | < 5 | 75 | Active | 20 | 18.8 | Dose-dependent-effect | Active | Active | Time-dependent-effect | 37.5 | Active | Activity (Acinetobacter baumannii [17]; time 7.0 day): Active; Activity (Peritoneal macrophage [20]): Active; MIC (Staphylococcus aureus [21]): 75 µg/mL; Activity [22]: Non-toxic; MIC (Salmonella enteritidis): 37.5 µg/mL; mortality at 24 h [23]: 0%; MIC (Clostridium perfringens): 18.8 µg/mL; MIC (Pseudomonas aeruginosa): > 100 µg/mL; Activity (Staphylococcus aureus [24]): Active; mortality at 24 h [25]: 0%; MIC [26]: 75 µg/mL; fold change (FC) (Staphylococcus aureus [27]): 32; Activity (Escherichia coli [28]): Active; Ratio (Acinetobacter baumannii [29]): 1
CC[C@H](C)[C@H](NC(=O)[C@H](CCCNC(=N)N)NC(=O)[C@H](CO)NC(=O)[C@@H]1CSSC[C@H](N)C(=O)N[C@@H](Cc2ccccc2)C(=O)N[C@@H](CCCCN)C(=O)N[C@@H](CCCCN)C(=O)N[C@@H](C(C)C)C(=O)N[C@@H](CCCNC(=N)N)C(=O)N[C@@H](CCCCN)C(=O)N[C@@H](CCC(N)=O)C(=O)N[C@@H](CC(C)C)C(=O)NCC(=O)N[C@@H](CCCNC(=N)N)C(=O)N[C@@H](C(C)C)C(=O)N[C@@H](CC(C)C)C(=O)N[C@@H](CCCNC(=N)N)C(=O)N[C@@H](Cc2c[nH]cn2)C(=O)N1)C(=O)N[C@H](C(=O)N[C@H](C(=O)NCC(=O)NCC(=O)N[C@@H](CCCNC(=N)N)C(=O)N[C@@H](CCSC)C(=O)N[C@@H](CCCNC(=N)N)C(=O)N[C@@H](Cc1ccccc1)C(=O)O)C(C)C)[C@@H](C)O (H-CFKKVRKQLGRVLRHCSRITVGGRMRF-OH; disulfide 1-16) | Active | 18.8 | 18.8 | 1 | Active | Active | Active | Active | Active | < 5 | 9.38 | Active | 20 | 4.69 | Dose-dependent-effect | Active | Active | Time-dependent-effect | 37.5 | Active | Activity (Staphylococcus aureus [30]): 20%; Activity (Escherichia coli [31]): Active; survival at 15 mg/kg (Acinetobacter baumannii [17]; ATCC19606, 168 h, time 7 day): 40%; inhibition (INH) (Acinetobacter baumannii [32]): 10%; Activity (Peritoneal macrophage [20]): Active; MIC (Staphylococcus aureus [21]): 18.8 µg/mL; Activity [22]: Non-toxic; Activity (Staphylococcus aureus [33]): 50%; MIC (Salmonella enteritidis): 9.38 µg/mL; Activity [34]: Non-toxic; mortality at 24 h [23]: 0%; MIC (Clostridium perfringens): 9.38 µg/mL; MIC (Pseudomonas aeruginosa): 9.38 µg/mL; mortality at 24 h [25]: 0%; MIC [26]: 9.38 µg/mL; fold change (FC) (Staphylococcus aureus [27]): 32; Ratio (Acinetobacter baumannii [29]): 1

Source: ChEMBL document CHEMBL6078680, “Improving the Stability and Anti-Infective Activity of Sea Turtle AMPs Using Multiple Structural Modification Strategies” (J Med Chem, 2024)
